Drawing on patent publication US10987359B2, “Oxadiazepinone derivatives and methods of treating hepatitis B infections” (priority 2016, dated 2021), this text covers EC50 for 20 molecules.

This assay deals with HBV. As to the kind of experiment: HBV replication inhibition assay (BDNA assay) in HepG2.2.15 cells. The format is cell-based. Conditions: HepG2.2.15 cells, read-out: DNA EC50. The method in brief:
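HepG2.2.15 cells with stably integrated HBV were treated with serially diluted compounds at 0.5% DMSO for 6 days, with medium and compound refreshed at day 3. Encapsidated HBV DNA from DNase-treated supernatant was quantified by branched DNA assay. EC50 came from % inhibition versus DMSO, fitted non-linearly.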

Where [1] appears, read: Hepatitis B virus, HepG2.2.15, HBV replication assay (BDNA assay).
Where [2] appears, read: HBV replication assay (BDNA assay).

Read-outs that look alike come from different tables or passages of the source.

For orientation: EC50 means the midpoint of the concentration-response curve. With `CC(=O)NCC1Cn2nc3c(c2C(=O)N(C)O1)CN(C(=O)Nc1ccc(F)c(Br)c1F)CC3` (single isomer, unassigned) [Compound 170_E1, (S*)-4-(acetamidomethyl)-N-(3-bromo-2,4-difluorophenyl)-2-methyl-1-oxo-1,4,5,8,9,11-hexahydropyrido[4′,3′:3,4]pyrazolo[5,1-d][1,2,5]oxadiazepine-10(2H)-carboxamide], the EC50 under setting [1] was 0.001 to 0.1 µM. On to `CC(=O)NCC1Cn2nc3c(c2C(=O)N(C)O1)CN(C(=O)Nc1ccc(F)c(Br)c1)CC3` (single isomer, unassigned) [Compound 171_E1, (S*)-4-(acetamidomethyl)-N-(3-bromo-4-fluorophenyl)-2-methyl-1-oxo-1,4,5,8,9,11-hexahydropyrido[4′,3′:3,4]pyrazolo[5,1-d][1,2,5]oxadiazepine-10(2H)-carboxamide], for which, under setting [1], the EC50 is 0.001 to 0.1 µM. Still for that read-out and setting: the same measure for `CC(=O)NCC1Cn2nc3c(c2C(=O)N(C)O1)CN(C(=O)Nc1ccc(F)c(C(F)(F)F)c1F)CC3` (single isomer, unassigned) [Compound 172_E1, (S*)-4-(acetamidomethyl)-N-(2,4-difluoro-3-(trifluoromethyl)phenyl)-2-methyl-1-oxo-1,4,5,8,9,11-hexahydropyrido[4′,3′:3,4]pyrazolo[5,1-d][1,2,5]oxadiazepine-10(2H)-carboxamide]: 0.001 to 0.1 µM. On the same count and under the same terms, the same measure for `CC(=O)NCC1Cn2nc3c(c2C(=O)N(C)O1)CN(C(=O)Nc1cc(Cl)c(F)cc1F)CC3` (single isomer, unassigned) [Compound 173_E1, (S*)-4-(acetamidomethyl)-N-(5-chloro-2,4-difluorophenyl)-2-methyl-1-oxo-1,4,5,8,9,11-hexahydropyrido[4′,3′:3,4]pyrazolo[5,1-d][1,2,5]oxadiazepine-10(2H)-carboxamide]: 0.001 to 0.1 µM; for `CC(=O)NCC1Cn2nc3c(c2C(=O)N(C)O1)CN(C(=O)Nc1cc(Br)c(F)cc1F)CC3` (single isomer, unassigned) [Compound 174_E1, (S*)-4-(acetamidomethyl)-N-(5-bromo-2,4-difluorophenyl)-2-methyl-1-oxo-1,4,5,8,9,11-hexahydropyrido[4′,3′:3,4]pyrazolo[5,1-d][1,2,5]oxadiazepine-10(2H)-carboxamide]: 0.001 to 0.1 µM. Take `CC(=O)NCC1Cn2nc3c(c2C(=O)N(C)O1)CN(C(=O)Nc1ccc(F)c(C(F)(F)F)c1)CC3` (single isomer, unassigned) [Compound 175_E1, (S*)-4-(acetamidomethyl)-N-(4-fluoro-3-(trifluoromethyl)phenyl)-2-methyl-1-oxo-1,4,5,8,9,11-hexahydropyrido[4′,3′:3,4]pyrazolo[5,1-d][1,2,5]oxadiazepine-10(2H)-carboxamide]: under setting [1], the EC50 fell in the range of 0.001 to 0.1 µM. In the case of `CC(=O)NCC1Cn2nc3c(c2C(=O)N(C)O1)CN(C(=O)Nc1ccc(F)c(C#N)c1)[C@H](C)C3` (single isomer, unassigned) [Compound 176_D1, (4S*,9R)-4-(acetamidomethyl)-N-(3-cyano-4-fluorophenyl)-2,9-dimethyl-1-oxo-1,4,5,8,9,11-hexahydropyrido[4′,3′:3,4]pyrazolo[5,1-d][1,2,5]oxadiazepine-10(2H)-carboxamide], the EC50 under setting [2] lay in the range of 0.1 to 0.5 µM. Same read-out and setting: the same measure for `CC(=O)NCC1Cn2nc3c(c2C(=O)N(C)O1)CN(C(=O)Nc1ccc(F)c(C#N)c1)[C@H](C)C3` (single isomer, unassigned) [Compound 176_D2, (4R*,9R)-4-(acetamidomethyl)-N-(3-cyano-4-fluorophenyl)-2,9-dimethyl-1-oxo-1,4,5,8,9,11-hexahydropyrido[4′,3′:3,4]pyrazolo[5,1-d][1,2,5]oxadiazepine-10(2H)-carboxamide]: 0.001 to 0.1 µM. With `CC(=O)NCC1Cn2nc3c(c2C(=O)N(C)O1)CN(C(=O)Nc1ccc(F)c(C(F)(F)F)c1)[C@H](C)C3` (single isomer, unassigned) [Compound 177_D1, (4S*,9R)-4-(acetamidomethyl)-N-(4-fluoro-3-(trifluoromethyl)phenyl)-2,9-dimethyl-1-oxo-1,4,5,8,9,11-hexahydropyrido[4′,3′:3,4]pyrazolo[5,1-d][1,2,5]oxadiazepine-10(2H)-carboxamide], the EC50 under setting [1] fell in the range of 0.001 to 0.1 µM. On to `CC(=O)NCC1Cn2nc3c(c2C(=O)N(C)O1)CN(C(=O)Nc1ccc(F)c(C(F)(F)F)c1)[C@H](C)C3` (single isomer, unassigned) [Compound 177_D2, (4R*,9R)-4-(acetamidomethyl)-N-(4-fluoro-3-(trifluoromethyl)phenyl)-2,9-dimethyl-1-oxo-1,4,5,8,9,11-hexahydropyrido[4′,3′:3,4]pyrazolo[5,1-d][1,2,5]oxadiazepine-10(2H)-carboxamide], for which, under setting [2], the EC50 lay within 0.001 to 0.1 µM. Same read-out and setting: the same measure for `C[C@@H]1Cc2nn3c(c2CN1C(=O)Nc1ccc(F)c(C#N)c1)C(=O)N(C)OC(CNS(C)(=O)=O)C3` (single isomer, unassigned) [Compound 178_D1, (4S*,9R)—N-(3-cyano-4-fluorophenyl)-2,9-dimethyl-4-(methylsulfonamidomethyl)-1-oxo-1,4,5,8,9,11-hexahydropyrido[4′,3′:3,4]pyrazolo[5,1-d][1,2,5]oxadiazepine-10(2H)-carboxamide]: 0.1 to 0.5 µM; for `C[C@@H]1Cc2nn3c(c2CN1C(=O)Nc1ccc(F)c(C#N)c1)C(=O)N(C)OC(CNS(C)(=O)=O)C3` (single isomer, unassigned) [Compound 178_D2, (4R*,9R)—N-(3-cyano-4-fluorophenyl)-2,9-dimethyl-4-(methylsulfonamidomethyl)-1-oxo-1,4,5,8,9,11-hexahydropyrido[4′,3′:3,4]pyrazolo[5,1-d][1,2,5]oxadiazepine-10(2H)-carboxamide]: 0.001 to 0.1 µM. For `C[C@@H]1Cc2nn3c(c2CN1C(=O)Nc1ccc(F)c(C(F)(F)F)c1)C(=O)N(C)OC(CNS(C)(=O)=O)C3` (single isomer, unassigned) [Compound 179_D1, (4 S*,9R)—N-(4-fluoro-3-(trifluoromethyl)phenyl)-2,9-dimethyl-4-(methylsulfonamidomethyl)-1-oxo-1,4,5,8,9,11-hexahydropyrido[4′,3′:3,4]pyrazolo[5,1-d][1,2,5]oxadiazepine-10(2H)-carboxamide], under setting [1], the EC50 fell in the range of 0.001 to 0.1 µM.

As for `C[C@@H]1Cc2nn3c(c2CN1C(=O)Nc1ccc(F)c(C(F)(F)F)c1)C(=O)N(C)OC(CNS(C)(=O)=O)C3` (single isomer, unassigned) [Compound 179_D2, (4R*,9R)—N-(4-fluoro-3-(trifluoromethyl)phenyl)-2,9-dimethyl-4-(methylsulfonamidomethyl)-1-oxo-1,4,5,8,9,11-hexahydropyrido[4′,3′:3,4]pyrazolo[5,1-d][1,2,5]oxadiazepine-10(2H)-carboxamide], the EC50 under setting [2] lay in the range of 0.001 to 0.1 µM. Take `COC(=O)NCC1Cn2nc3c(c2C(=O)N(C)O1)CN(C(=O)Nc1ccc(F)c(C#N)c1)[C@H](C)C3` (single isomer, unassigned) [Compound 180_D1, methyl (((4S*,9R)-10-((3-cyano-4-fluorophenyl)carbamoyl)-2,9-dimethyl-1-oxo-1,2,4,5,8,9,10,11-octahydropyrido[4′,3′:3,4]pyrazolo[5,1-d][1,2,5]oxadiazepin-4-yl)methyl)carbamate]: the EC50 under setting [1] fell in the range of 0.001 to 0.1 µM. Regarding `COC(=O)NCC1Cn2nc3c(c2C(=O)N(C)O1)CN(C(=O)Nc1ccc(F)c(C#N)c1)[C@H](C)C3` (single isomer, unassigned) [Compound 180_D2, methyl (((4R*,9R)-10-((3-cyano-4-fluorophenyl)carbamoyl)-2,9-dimethyl-1-oxo-1,2,4,5,8,9,10,11-octahydropyrido[4′,3′:3,4]pyrazolo[5,1-d][1,2,5]oxadiazepin-4-yl)methyl)carbamate], under setting [2], the concentration giving a half-maximal response (EC50) fell in the range of 0.001 to 0.1 µM.

Take `COC(=O)NCC1Cn2nc3c(c2C(=O)N(C)O1)CN(C(=O)Nc1ccc(F)c(C(F)(F)F)c1)[C@H](C)C3` (single isomer, unassigned) [Compound 181_D1, methyl(((4S*,9R)-10-((4-fluoro-3-(trifluoromethyl)phenyl)carbamoyl)-2,9-dimethyl-1-oxo-1,2,4,5,8,9,10,11-octahydropyrido[4′,3′:3,4]pyrazolo[5,1-d][1,2,5]oxadiazepin-4-yl)methyl)carbamate]: the concentration giving a half-maximal response (EC50) under setting [1] lay in the range of 0.001 to 0.1 µM. As for `COC(=O)NCC1Cn2nc3c(c2C(=O)N(C)O1)CN(C(=O)Nc1ccc(F)c(C(F)(F)F)c1)[C@H](C)C3` (single isomer, unassigned) [Compound 181_D2, methyl (((4R*,9R)-10-((4-fluoro-3-(trifluoromethyl)phenyl)carbamoyl)-2,9-dimethyl-1-oxo-1,2,4,5,8,9,10,11-octahydropyrido[4′,3′:3,4]pyrazolo[5,1-d][1,2,5]oxadiazepin-4-yl)methyl)carbamate], the 50% effective concentration (EC50) under setting [2] fell in the range of 0.001 to 0.1 µM.

Take `C[C@@H]1Cc2nn3c(c2CN1C(=O)Nc1ccc(F)c(C(F)(F)F)c1)C(=O)N(C)OC(CNCC(F)F)C3` (single isomer, unassigned) [Compound 182_D1, (4S*,9R)-4-(((2,2-difluoroethyl)amino)methyl)-N-(4-fluoro-3-(trifluoromethyl)phenyl)-2,9-dimethyl-1-oxo-1,4,5,8,9,11-hexahydropyrido[4′,3′:3,4]pyrazolo[5,1-d][1,2,5]oxadiazepine-10(2H)-carboxamide]: the EC50 under setting [1] was in the range of 0.001 to 0.1 µM. Consider `C[C@@H]1Cc2nn3c(c2CN1C(=O)Nc1ccc(F)c(C(F)(F)F)c1)C(=O)N(C)OC(CNCC(F)F)C3` (single isomer, unassigned) [Compound 182_D2, (4R*,9R)-4-(((2,2-difluoroethyl)amino)methyl)-N-(4-fluoro-3-(trifluoromethyl)phenyl)-2,9-dimethyl-1-oxo-1,4,5,8,9,11-hexahydropyrido[4′,3′:3,4]pyrazolo[5,1-d][1,2,5]oxadiazepine-10(2H)-carboxamide], for which the EC50 under setting [2] was in the range of 0.001 to 0.1 µM.
